Results: US20190307820A1, “COMPOSITIONS AND METHODS OF USING STAT1/3 INHIBITORS WITH ONCOLYTIC HERPES VIRUS” (priority 2016, published 2019)

Assays:
[1] = tested on: pSTAT3 (Tyr705); experiment: Western blot of pSTAT3 (Tyr705) in BV2 microglia cells; format: cell-based, mouse; details: C16 1 μM
Procedure: (§1) BV2 cells were pre-treated with vehicle or C16 (1 μM) for 2 hours and then incubated with vehicle or oHSV-1 (G207) at an MOI of 1 or oHSV-1 and C16 combination for 24 hours. Total protein was harvested and subjected to western blot assay. β-actin expression was used for loading control (means±SE).
(§2) BV2 cells were treated with either vehicle or Lps (1 μg/ml) or Lps (1 μg/ml) with C16 (1 μM) for 24 hours. Total protein was harvested and subjected to western blot assay. β-actin expression was used for loading control (means±SE).
Total protein was harvested with sample buffer (125 mM Tris-HCL, 50% Glycerol, […] and 5% 2-mercaptoethanol) and boiled for 5 minutes. Protein samples were subjected to SDS-PAGE (8% gel), transferred to nitrocellulose membranes and blocked in 5% nonfat milk (Bio Rad) in TBS-Tween 20 (TBS-T) for 1 hour at room temperature. […] Band density was measured by using ImageJ software (NIH, Bethesda, Md.).

[2] = tested on: pSTAT1 (Tyr701); experiment: Western blot of STAT 1 / pSTAT1 (Tyr701) in BV2 microglia cells; format: cell-based, mouse
Procedure: as §1, §2
(§3) Total protein was harvested with sample buffer (125 mM Tris-HCL, 50% Glycerol, […] and 5% 2-mercaptoethanol) and boiled for 5 minutes. Protein samples were subjected to SDS-PAGE (8% gel), transferred to nitrocellulose membranes and blocked in 5% nonfat milk (Bio Rad) in TBS-Tween 20 (TBS-T) for 1 hour at room temperature. The membranes were then incubated with primary antibody against β-actin at 1:1000 (Cell Signaling, Danvers, Mass.) or anti-STAT1 antibody at 1:1000 (Cell Signaling, Danvers, Mass.) or anti-STAT3 antibody at 1:1000 (Cell Signaling, Danvers, Mass.) or anti-phospho STAT1 antibody (Tyr701) at 1:1000 (Cell Signaling, Danvers, Mass.) or anti-phospho STAT3 antibody (Tyr705) at 1:1500 (Cell Signaling, Danvers, Mass.) or anti-phosphor-eIF2a antibody (ser51) at 1:1000 (Cell Signaling, Danvers, Mass.) or anti-ICP27 antibody at 1:1000 (Abcam, Cambridge, Mass.) or anti-ICP4 antibody at 1:750 (Abcam, Cambridge, Mass.) for overnight at 4° C. The membranes were washed the next day with TBS-T three times and incubated with corresponding secondary antibody at 1:3000 (Perkim Elmer, Boston, Mass.), for 1 hour at room temperature. Membranes were washed with TBS-T three times before visualization using ECL reagent (Perkim Elmer, Boston, Mass.) and VersaDoc imaging system (Bio-Rad). Band density was measured by using ImageJ software (NIH, Bethesda, Md.).

[3] = tested on: ICP27; experiment: Western blot of ICP27 in HSV-1 infected microglia cells; format: cell-based; details: for ICP27 expression: 1 μM C16, 24 hours
Procedure: (§4) FIG. 12B depicts an electrophoresis gel showing total proteins that were harvested from G2O7 infected microglia cells at 24 hours post treatment with either 1 μM of C16, 1 μM of Bay11, or 100 μM of AG. ICP27, ICP4, and […] expression was measured by western blot assay. U87 and MG co-culture were pretreated with 0.5 μM of C16 for 1 hour.
as §4, with “12C” for “12B”, “HrR3 or KOS” for “G2O7”, “post-treatment” for “post treatment”, “with” for “with either”, “PKR-i (C16).” for “C16, 1 μM of Bay11, or 100 μM of AG.”
as §3, with “Md.). […]” for “Md.).”

[4] = tested on: CT26, LL2, U87, B16, 4T1 tumor cells; experiment: Cell survival (MTT) of tumor cell panel with nifuroxazide and/or virus; format: cell-based; details: nifuroxazide 0-100 μM
Excerpt: FIGS. 7A-7L show results of treatment of tumor cells with nifuroxazide and oHSV-1. FIG. 7A-7C show cell survival for tumor cells CT26, LL2 and U87 treated with nifuroxazide or HrR3 or KOS. FIG. 7D-7G show cell survival of tumor cells, U87, CT26, 4T1 and LL2, treated first with nifuroxazide and then HrR3 virus. FIG. 7H-7K show combination index (CI) values for tumor cells treated with varying doses of nifuroxazide or the viruses, HrR3 or KOS, or VG12TR, alone or in combination. FIG. 7L is a table presenting the dose reduction index for a combination of nifuroxazide and HrR3 virus.
In this example, the effect of nifuroxazide and oHSV-1 on tumor cells was evaluated. A variety of cancer cell types were treated with nifuroxazide (from 0-100 μM) or HrR3 virus at a MOI from 0 to 12.5 or KOS virus at a MOI from 1 to 12.5. Cell survival was measured.
Tumor cells were treated with nifuroxazide or medium. Following incubation, virus was added and further incubated for 72 (FIG. 7D) or 48 hrs (FIG. 7E-7G). Cytotoxicity was measured by an MTT assay. […]
If FIG. 7H-7K, cells were treated with varying doses of nifuroxazide or the indicated viruses (HrR3, KOS, or VG12TR) alone or in combination for 48 hrs (7J, 7K) or 72 hrs (7H) Cell viability was measured by a MTT assay and combination index (CI) values were calculated using Chour-Talalay analysis. […]

Row | SMILES | upregulation of pSTAT3 (Tyr705) induced by oHSV-1 ([1]; G207 MOI of 1, 24 hours) | STAT 3 phosphorylation, LPS treated ([1]; Lps 1 μg/ml, 24 hours) | upregulation of pSTAT1 (Tyr701) induced by oHSV-1 ([2]; C16 1 μM, G207 MOI of 1, 24 hours) | expression level of STAT 1 ([2]; G207 infected microglial cells) | STAT 1 phosphorylation, LPS treated ([2]; Lps 1 μg/ml, C16 1 μM, 24 hours) | upregulated expression of ICP27 ([3]; G207 infected, 1 μM C16, 1 μM Bay11 or 100 μM AG, 24 hours) [fold] | ICP27 expression ([3]; HrR3 infected BV2 cells) | ICP27 expression ([3]; KOS infected BV2 cells) | Cell survival [4]
1 | O=C1Nc2ccc3ncsc3c2/C1=C/c1c[nH]cn1 [C16, 6,8-Dihydro-8-(1H-imidazol-5-ylmethylene)-7H-pyrrolo[2,3-g]benzothiazol-7-one] | significantly suppress the upregulation | inhibition in STAT 1/3 phosphorylation | significantly suppress the upregulation | reduced after C16 treatment | inhibition in STAT 1/3 phosphorylation | 25 | upregulated ICP27 expression | upregulated ICP27 expression | –
2 | O=C(N/N=C/c1ccc([N+](=O)[O-])o1)c1ccc(O)cc1 [nifuroxazide, Benzoic acid, 4-hydroxy-, [(5-nitro-2-furanyl)metylene]hydrazide] | – | – | – | – | – | – | – | – | caused cell mortality in all cell lines at higher doses
